Experimental findings from patent US20240408170A1, “COMPOSITION FOR DECOMPOSITION OF TRYPSIN OR TMPRSS2” (Riken, priority 2021, published 2024) are described below.

In assay [1] the test system is IgA heavy chain. In words: Western blot of faeces of GF mice inoculated with P. clara strain together with 2-mix. The class given is in vivo, mouse. Particulars: compared to Δ00502 or Δ00509. As for the experimental part: Mouse faecal samples were suspended and diluted 50-fold with phosphate buffered saline (PBS) to which a protease inhibitor cocktail (Roche) was added. Subsequently, the suspended sample was centrifuged at 15,000×g for 10 minutes at 4° C., and the supernatant was subjected to western blot. Mouse pancreatic tissue was rapidly frozen in liquid nitrogen. Proteins were extracted by TRIzol Reagent (Thermo Fisher Scientific K.K.), and the final protein concentration was adjusted to 4 μg/μL. For SDS-PAGE and blotting, Novex (registered trademark) NuPAGE (registered trademark) SDS-PAGE Gel system (Thermo Fisher Scientific K.K.) and iBlot™ 2 Dry Blotting System (Thermo Fisher Scientific K.K.) were used according to the manufacturer's instructions.
The antibodies used are as follows. […]
In general terms: Immunoblotting shows a protein as a band on a membrane.

The test system of assay [2] is IgA heavy chain. In words: Ex vivo incubation of mouse faeces at 37° C. for 48 hours, western blot. To be noted: faeces of GF mice inoculated together with 2-mix, 37° C. 48 hours. The method, then:
(§1) Mouse faecal samples were suspended and diluted 50-fold with phosphate buffered saline (PBS) to which a protease inhibitor cocktail (Roche) was added. Subsequently, the suspended sample was centrifuged at 15,000×g for 10 minutes at 4° C., and the supernatant was subjected to western blot. Mouse pancreatic tissue was rapidly frozen in liquid nitrogen. Proteins were extracted by TRIzol Reagent (Thermo Fisher Scientific K.K.), and the final protein concentration was adjusted to 4 μg/μL. For SDS-PAGE and blotting, Novex (registered trademark) NuPAGE (registered trademark) SDS-PAGE Gel system (Thermo Fisher Scientific K.K.) and iBlotTM 2 Dry Blotting System (Thermo Fisher Scientific K.K.) were used according to the manufacturer's instructions. The antibodies used are as follows. A rabbit anti-mouse PRSS2 antibody (Cosmo Bio Co., Ltd.), a rabbit anti-mouse HSP90 antibody (#4877, Cell Signaling Technology, Inc.), a rabbit anti-human PRSS2 antibody (LS-B15726, LSBio), a rabbit anti-human PRSS1 antibody (LS-331381, LSBio), a rabbit anti-mouse TMPRSS2 antibody (LS-C373022, LSBio, against the sequence of the protease domain), a rabbit anti-6-His antibody ([…]-[…], Bethyl Laboratories, Inc.), a goat anti-mouse IgA a chain antibody (HRP) (ab97235, Abcam plc.), a rat anti-mouse κ chain antibody (HRP) (ab99632, Abcam plc.), a rabbit anti-mouse CELA3b antibody (OACD03205, Aviva Systems Biology Corporation), an anti-rabbit IgG antibody (HRP) (#7074, Cell Signaling Technology, Inc.), and a rabbit anti-mouse Reg3 antibody (51153-[…], Sino Biological, Inc.).

In the next assay the target is T1, trypsin (PRSS2) (Mus musculus, UniProt P07146).
T1 construct: the anionic trypsin protease was abundantly present in the cecal contents and the faeces; from tissue; host or cells: faeces and cecal contents of germ-free / gnotobiotic mice
T1 sequence (P07146 24-246): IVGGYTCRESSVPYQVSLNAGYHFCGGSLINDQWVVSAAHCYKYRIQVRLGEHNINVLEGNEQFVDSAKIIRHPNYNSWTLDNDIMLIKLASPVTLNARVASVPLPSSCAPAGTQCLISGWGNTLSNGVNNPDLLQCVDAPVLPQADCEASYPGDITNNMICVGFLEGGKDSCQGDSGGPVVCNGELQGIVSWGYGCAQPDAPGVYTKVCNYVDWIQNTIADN
Described as above. To be noted: faeces of GF mice inoculated together with 2-mix, 37° C. 48 hours. As for the experimental part: as §1

For assay [3], the system named is mouse hepatitis virus (MHV). The experiment in a line: Mouse hepatitis virus (MHV) infection of gnotobiotic mice. Format: in vivo. To be noted: with 2-mix. As for the experimental part:
MHV-2 was provided by Makoto UJIKE (Nippon Veterinary and Life Science University). Five-week-old GF C57BL/6N male mice were obtained from CLEA Japan, Inc. or Sankyo Labo Service Corporation, and were separately bred in stainless steel isolators. 200 μL of 2-mix (B. uniformis and P. merdae)+P. clara (WT) or 2-mix+P. clara (Δ00502) was orally administered to the GF mice. Two weeks after inoculation, the mice were orally infected with 4.5×10^6 PFU of MHV-2, and the survival rate was observed every day for 10 days.
The liver and brain were collected on 4 or 5 days after infection to measure virus titers, and homogenization was performed with DNA/RNA Shield (Zymo Research Corporation). Viral RNA was extracted using a Quick-RNA Viral Kit (Zymo Research Corporation) according to the manufacturer's instructions, and cDNA was synthesized using ReverTra Ace (TOYOBO CO., LTD.) and a random primer (TOYOBO CO., LTD.).
Quantitative real-time PCR was performed with LightCycler 480 System (Roche) using THUNDERBIRD SYBR qPCR Mix (TOYOBO CO., LTD.) to amplify an orf1a gene. The relative amount of MHV was obtained from a standard curve created from a serial diluent solution of MHV genomic cDNA. The base sequences of the primers used are as follows.

In the case of Paraprevotella clara [JCM 14859], the “IgA heavy chain in the faeces” value with IgA heavy chain [1] is recorded as “larger amount”. The “IgA heavy chain in faeces” value in the assay with IgA heavy chain [2] is “remained”. Further, the trypsin in faeces entry at trypsin (PRSS2) is listed as “reduced”. Further, in assay [3], the “liver pathology (hematoxylin and eosin)” value is “protected from the necrotizing liver pathology”; the “viral titers of MHV in liver and brain” value is on record as “significantly prevented the spread of the virus”. The “survival after MHV infection” value in assay [3] (oral MHV 14 days after inoculation) is given as “prolonged survival”.
